ChEMBL document CHEMBL1201862, “PubChem BioAssay data set” (2004)
Active and inactive are the calls of the source.

Tests used:
[1] = target: T1, Heat shock factor protein 1 (Mus musculus, UniProt P38532); assay: HSF1 potentiators in luciferase reporter cells, confirmation, cell-based, NIH3T3, luminescence, dose retest (AID 435004); assay type: functional;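 note: stress induced by proteasome inhibitor MG132 added 30 min after compound; luciferase reporter driven by HSF1 response element in NIH3T3 cells; actives raise luminescence as potentiators of the MG132 stress response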
T1 sequence (P38532 whole entry): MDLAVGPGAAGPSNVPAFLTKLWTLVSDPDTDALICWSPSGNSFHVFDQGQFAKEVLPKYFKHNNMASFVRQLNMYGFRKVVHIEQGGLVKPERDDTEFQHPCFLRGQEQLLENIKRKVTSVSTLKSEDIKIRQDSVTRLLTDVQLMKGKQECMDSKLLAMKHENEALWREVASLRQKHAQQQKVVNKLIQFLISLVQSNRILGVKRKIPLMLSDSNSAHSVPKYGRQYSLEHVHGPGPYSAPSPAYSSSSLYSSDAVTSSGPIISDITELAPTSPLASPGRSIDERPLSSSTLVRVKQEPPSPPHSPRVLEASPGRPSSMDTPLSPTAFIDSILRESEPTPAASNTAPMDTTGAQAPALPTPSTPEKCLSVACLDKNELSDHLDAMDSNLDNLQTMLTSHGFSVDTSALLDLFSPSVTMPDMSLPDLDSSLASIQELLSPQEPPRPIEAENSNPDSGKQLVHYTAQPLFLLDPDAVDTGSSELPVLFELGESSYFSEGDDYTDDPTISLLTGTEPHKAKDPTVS

[2] = target: T2, Microphthalmia-associated transcription factor (Homo sapiens, UniProt O75030); assay: TRPM1 promoter luciferase signal decrease, dose response, MITF inhibitor project, cell-based, SK-MEL-5, cherry-picked, set 3 (AID 493073); assay type: functional
T2 sequence (O75030 whole entry): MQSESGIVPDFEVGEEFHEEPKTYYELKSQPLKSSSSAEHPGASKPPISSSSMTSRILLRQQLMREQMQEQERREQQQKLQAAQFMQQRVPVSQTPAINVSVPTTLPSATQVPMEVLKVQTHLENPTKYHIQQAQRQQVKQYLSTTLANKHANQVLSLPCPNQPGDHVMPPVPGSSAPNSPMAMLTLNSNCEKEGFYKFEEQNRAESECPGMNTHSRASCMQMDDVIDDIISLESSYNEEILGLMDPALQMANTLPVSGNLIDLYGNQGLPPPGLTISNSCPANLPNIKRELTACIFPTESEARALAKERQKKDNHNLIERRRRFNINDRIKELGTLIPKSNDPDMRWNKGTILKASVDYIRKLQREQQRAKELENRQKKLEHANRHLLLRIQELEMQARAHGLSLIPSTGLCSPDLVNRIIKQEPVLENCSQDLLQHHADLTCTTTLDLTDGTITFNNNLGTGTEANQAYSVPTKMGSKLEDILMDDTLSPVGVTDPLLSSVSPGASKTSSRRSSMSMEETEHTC

[3] = target: T3, Replicative DNA helicase DnaB (Mycobacterium tuberculosis, UniProt P9WMR3); assay: DnaB intein splicing inhibitors, dose response, biochemical, cell-free fluorescence (AID 449749); assay type: functional
T3 sequence (P9WMR3 whole entry): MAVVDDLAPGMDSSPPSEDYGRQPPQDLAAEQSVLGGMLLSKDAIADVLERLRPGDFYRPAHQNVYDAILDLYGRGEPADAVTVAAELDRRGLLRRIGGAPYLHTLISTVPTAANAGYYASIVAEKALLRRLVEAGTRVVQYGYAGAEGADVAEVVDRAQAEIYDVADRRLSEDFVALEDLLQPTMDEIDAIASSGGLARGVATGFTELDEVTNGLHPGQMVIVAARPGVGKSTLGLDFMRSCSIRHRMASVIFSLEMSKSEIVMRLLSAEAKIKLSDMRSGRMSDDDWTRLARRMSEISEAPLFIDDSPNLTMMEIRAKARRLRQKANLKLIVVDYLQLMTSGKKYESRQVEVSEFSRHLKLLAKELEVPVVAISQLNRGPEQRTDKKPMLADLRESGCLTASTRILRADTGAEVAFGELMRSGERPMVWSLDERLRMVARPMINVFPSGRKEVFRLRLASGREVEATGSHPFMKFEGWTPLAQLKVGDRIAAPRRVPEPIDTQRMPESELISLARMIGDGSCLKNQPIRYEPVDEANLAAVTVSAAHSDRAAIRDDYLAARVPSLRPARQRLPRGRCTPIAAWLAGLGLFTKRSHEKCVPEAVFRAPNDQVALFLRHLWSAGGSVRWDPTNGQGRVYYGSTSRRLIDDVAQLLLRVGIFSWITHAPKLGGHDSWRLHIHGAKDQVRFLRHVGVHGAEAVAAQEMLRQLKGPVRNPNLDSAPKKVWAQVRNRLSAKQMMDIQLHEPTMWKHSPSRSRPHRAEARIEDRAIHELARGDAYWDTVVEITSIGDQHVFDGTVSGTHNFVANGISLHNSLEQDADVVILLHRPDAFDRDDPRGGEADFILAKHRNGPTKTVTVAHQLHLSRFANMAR

Protein RecA = target: T4, Protein RecA (Mycobacterium tuberculosis, UniProt P9WHJ3); assay: Fluorescence Cell-Free Homogeneous Dose Retest to Identify Inhibitors of RecA-Intein Splicing Activity. [Related pubchem assays (depositor defined):AID2097, AID2223, AID489010, AID492950]; assay type: functional
T4 sequence (P9WHJ3 whole entry): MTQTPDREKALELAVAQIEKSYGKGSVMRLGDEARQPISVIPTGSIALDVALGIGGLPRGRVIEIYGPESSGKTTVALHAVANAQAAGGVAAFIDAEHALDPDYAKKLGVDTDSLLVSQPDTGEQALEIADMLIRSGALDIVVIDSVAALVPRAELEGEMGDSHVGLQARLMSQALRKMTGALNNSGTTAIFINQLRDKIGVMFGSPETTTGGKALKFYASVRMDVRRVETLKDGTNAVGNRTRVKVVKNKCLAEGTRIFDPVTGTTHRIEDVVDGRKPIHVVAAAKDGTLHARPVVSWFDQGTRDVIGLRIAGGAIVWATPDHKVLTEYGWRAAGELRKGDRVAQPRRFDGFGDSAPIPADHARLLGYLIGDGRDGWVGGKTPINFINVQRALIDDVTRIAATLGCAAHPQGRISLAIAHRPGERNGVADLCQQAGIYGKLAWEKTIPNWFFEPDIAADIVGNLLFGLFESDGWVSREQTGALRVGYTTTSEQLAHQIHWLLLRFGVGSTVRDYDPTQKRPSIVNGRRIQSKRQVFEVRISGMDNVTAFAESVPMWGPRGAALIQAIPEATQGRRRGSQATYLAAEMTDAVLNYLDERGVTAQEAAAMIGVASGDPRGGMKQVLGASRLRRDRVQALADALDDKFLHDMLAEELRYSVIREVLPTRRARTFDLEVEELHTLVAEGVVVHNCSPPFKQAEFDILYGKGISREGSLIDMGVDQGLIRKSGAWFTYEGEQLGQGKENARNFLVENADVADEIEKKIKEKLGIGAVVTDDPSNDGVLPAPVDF

[4] = Luminescence Cell-Based Dose Retest to Confirm Inhibitors of Cancer Stem Cells. [Related pubchem assays (depositor defined):AID2717, AID2721]; assay type: functional; conditions: Homo sapiens
[5] = target: T5, High affinity choline transporter 1 (Homo sapiens, UniProt Q9GZV3); assay: CHT inhibitors, dose response, cell-based, 5-point CRC, membrane potential dye (AID 504840); assay type: functional
T5 sequence (Q9GZV3 whole entry): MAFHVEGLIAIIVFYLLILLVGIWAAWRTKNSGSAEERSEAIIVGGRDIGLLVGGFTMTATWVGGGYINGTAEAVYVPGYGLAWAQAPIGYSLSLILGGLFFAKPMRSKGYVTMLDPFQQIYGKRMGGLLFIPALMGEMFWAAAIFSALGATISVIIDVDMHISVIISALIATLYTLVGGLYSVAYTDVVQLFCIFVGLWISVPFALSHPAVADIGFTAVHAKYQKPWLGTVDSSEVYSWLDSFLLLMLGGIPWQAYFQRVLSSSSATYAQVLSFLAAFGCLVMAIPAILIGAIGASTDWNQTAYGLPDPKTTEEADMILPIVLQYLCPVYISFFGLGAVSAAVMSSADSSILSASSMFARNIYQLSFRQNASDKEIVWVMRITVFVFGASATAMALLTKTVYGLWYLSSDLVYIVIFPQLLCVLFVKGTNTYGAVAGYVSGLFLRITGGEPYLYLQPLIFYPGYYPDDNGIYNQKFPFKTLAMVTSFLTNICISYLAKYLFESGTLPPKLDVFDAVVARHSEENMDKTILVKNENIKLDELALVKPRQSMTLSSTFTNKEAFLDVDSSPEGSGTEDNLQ

[6] = microbe, parasite or virus in culture; assay type: functional; conditions: Mycobacterium tuberculosis
cells [7] = assay type: functional
INS1 = assay: beta cell apoptosis inhibitors, cytokine rescue, dose response, luminescence, retest (AID 449756); assay type: functional, cell-based; conditions: Rattus norvegicus;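 note: cell death triggered by IL-1 beta plus TNF-alpha plus IFN-gamma mixture; protective hits raise ATP signal compared with cytokine alone wells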
[8] = target: T6, Polyadenylate-binding protein 1 (Homo sapiens, UniProt P11940); assay: PABP1 MLLE–PAM2 interaction inhibitors, dose response, miRNA deadenylation inhibitor project, biochemical, fluorescence polarization, Cy5-PAM2 peptide, secondary (AID 602260); assay type: functional; conditions: read-out: IC50_Mean
T6 sequence (P11940 whole entry): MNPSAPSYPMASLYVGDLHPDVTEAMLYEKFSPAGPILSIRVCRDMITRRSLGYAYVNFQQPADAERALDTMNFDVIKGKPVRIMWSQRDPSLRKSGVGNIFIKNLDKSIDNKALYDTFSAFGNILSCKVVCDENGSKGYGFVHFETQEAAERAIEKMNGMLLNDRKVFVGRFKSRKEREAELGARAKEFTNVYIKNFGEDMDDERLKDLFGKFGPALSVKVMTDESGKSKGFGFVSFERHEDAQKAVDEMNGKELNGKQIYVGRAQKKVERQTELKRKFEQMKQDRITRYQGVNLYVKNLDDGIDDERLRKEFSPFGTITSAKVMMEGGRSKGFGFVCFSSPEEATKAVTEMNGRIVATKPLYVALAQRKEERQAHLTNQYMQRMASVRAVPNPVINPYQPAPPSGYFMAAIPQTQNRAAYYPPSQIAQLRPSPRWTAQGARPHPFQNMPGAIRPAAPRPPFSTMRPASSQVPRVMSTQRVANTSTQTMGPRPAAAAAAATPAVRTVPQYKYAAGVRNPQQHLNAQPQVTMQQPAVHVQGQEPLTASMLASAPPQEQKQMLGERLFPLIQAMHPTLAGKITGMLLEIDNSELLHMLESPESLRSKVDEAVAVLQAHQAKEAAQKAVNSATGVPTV

[9] = target: Heat shock protein HSP 90-alpha (Homo sapiens, UniProt P07900); assay type: functional, organism-based
cells [10] = assay type: functional, cell-based
Paired box protein Pax-8 = Paired box protein Pax-8 (Homo sapiens, UniProt Q06710); assay: inhibitors of PAX8-driven TPO luciferase reporter, dose response, RMG-I cells, cherry-pick (AID 687027); assay type: functional, cell-based;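 note: luciferase reporter driven by Pax8 target thyroperoxidase promoter measured by SteadyGlo luminescence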
Chain of Paired box protein Pax-8 (Q06710 whole entry): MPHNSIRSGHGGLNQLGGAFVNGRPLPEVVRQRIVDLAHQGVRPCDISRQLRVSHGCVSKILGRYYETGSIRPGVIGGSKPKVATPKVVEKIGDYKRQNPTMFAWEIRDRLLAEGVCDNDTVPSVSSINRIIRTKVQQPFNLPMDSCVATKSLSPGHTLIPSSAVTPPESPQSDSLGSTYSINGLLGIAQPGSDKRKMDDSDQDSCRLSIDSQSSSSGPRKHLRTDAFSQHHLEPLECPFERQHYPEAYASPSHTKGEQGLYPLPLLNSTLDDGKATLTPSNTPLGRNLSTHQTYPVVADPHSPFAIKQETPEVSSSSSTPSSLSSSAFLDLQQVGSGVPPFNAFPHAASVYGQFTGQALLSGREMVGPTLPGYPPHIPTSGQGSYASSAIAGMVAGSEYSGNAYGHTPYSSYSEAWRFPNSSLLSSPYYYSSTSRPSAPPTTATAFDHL

BJ [11] = assay: cells; assay type: functional, cell-based; conditions: Homo sapiens
[12] = target: T6, Polyadenylate-binding protein 1; assay: PABP1 MLLE–PAM2 binding inhibitor potency, dose response, biochemical, fluorescence polarization, FITC-PAM2 peptide (AID 602259); assay type: functional; conditions: read-out: IC50_Mean
cells [13] = assay type: functional, cell-based; remark: listed apart in the source
BJ [14] = assay: cytotoxicity toward BJ-TERT fibroblasts, dose response, cell-based, RAS-independent, luminescence (AID 1933); assay type: functional; conditions: Homo sapiens
BJ [15] = assay: cytotoxicity toward BJ-TERT-LT-ST fibroblasts, dose response, cell-based, RAS-independent, luminescence (AID 1935); assay type: functional; conditions: Homo sapiens;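 note: BJ fibroblasts immortalized with TERT plus LT and ST oncogenes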
[16] = cytotoxicity toward DRD oncogenic fibroblasts, dose response, cell-based, non-viral oncogenic, luminescence (AID 1934); assay type: functional; conditions: Homo sapiens
[17] = target: Voltage-dependent T-type calcium channel subunit alpha-1H (Homo sapiens, UniProt O95180); assay type: functional;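 note: channel activity triggered by adding a high calcium stimulation buffer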
Chain of Voltage-dependent T-type calcium channel subunit alpha-1H (O95180 whole entry): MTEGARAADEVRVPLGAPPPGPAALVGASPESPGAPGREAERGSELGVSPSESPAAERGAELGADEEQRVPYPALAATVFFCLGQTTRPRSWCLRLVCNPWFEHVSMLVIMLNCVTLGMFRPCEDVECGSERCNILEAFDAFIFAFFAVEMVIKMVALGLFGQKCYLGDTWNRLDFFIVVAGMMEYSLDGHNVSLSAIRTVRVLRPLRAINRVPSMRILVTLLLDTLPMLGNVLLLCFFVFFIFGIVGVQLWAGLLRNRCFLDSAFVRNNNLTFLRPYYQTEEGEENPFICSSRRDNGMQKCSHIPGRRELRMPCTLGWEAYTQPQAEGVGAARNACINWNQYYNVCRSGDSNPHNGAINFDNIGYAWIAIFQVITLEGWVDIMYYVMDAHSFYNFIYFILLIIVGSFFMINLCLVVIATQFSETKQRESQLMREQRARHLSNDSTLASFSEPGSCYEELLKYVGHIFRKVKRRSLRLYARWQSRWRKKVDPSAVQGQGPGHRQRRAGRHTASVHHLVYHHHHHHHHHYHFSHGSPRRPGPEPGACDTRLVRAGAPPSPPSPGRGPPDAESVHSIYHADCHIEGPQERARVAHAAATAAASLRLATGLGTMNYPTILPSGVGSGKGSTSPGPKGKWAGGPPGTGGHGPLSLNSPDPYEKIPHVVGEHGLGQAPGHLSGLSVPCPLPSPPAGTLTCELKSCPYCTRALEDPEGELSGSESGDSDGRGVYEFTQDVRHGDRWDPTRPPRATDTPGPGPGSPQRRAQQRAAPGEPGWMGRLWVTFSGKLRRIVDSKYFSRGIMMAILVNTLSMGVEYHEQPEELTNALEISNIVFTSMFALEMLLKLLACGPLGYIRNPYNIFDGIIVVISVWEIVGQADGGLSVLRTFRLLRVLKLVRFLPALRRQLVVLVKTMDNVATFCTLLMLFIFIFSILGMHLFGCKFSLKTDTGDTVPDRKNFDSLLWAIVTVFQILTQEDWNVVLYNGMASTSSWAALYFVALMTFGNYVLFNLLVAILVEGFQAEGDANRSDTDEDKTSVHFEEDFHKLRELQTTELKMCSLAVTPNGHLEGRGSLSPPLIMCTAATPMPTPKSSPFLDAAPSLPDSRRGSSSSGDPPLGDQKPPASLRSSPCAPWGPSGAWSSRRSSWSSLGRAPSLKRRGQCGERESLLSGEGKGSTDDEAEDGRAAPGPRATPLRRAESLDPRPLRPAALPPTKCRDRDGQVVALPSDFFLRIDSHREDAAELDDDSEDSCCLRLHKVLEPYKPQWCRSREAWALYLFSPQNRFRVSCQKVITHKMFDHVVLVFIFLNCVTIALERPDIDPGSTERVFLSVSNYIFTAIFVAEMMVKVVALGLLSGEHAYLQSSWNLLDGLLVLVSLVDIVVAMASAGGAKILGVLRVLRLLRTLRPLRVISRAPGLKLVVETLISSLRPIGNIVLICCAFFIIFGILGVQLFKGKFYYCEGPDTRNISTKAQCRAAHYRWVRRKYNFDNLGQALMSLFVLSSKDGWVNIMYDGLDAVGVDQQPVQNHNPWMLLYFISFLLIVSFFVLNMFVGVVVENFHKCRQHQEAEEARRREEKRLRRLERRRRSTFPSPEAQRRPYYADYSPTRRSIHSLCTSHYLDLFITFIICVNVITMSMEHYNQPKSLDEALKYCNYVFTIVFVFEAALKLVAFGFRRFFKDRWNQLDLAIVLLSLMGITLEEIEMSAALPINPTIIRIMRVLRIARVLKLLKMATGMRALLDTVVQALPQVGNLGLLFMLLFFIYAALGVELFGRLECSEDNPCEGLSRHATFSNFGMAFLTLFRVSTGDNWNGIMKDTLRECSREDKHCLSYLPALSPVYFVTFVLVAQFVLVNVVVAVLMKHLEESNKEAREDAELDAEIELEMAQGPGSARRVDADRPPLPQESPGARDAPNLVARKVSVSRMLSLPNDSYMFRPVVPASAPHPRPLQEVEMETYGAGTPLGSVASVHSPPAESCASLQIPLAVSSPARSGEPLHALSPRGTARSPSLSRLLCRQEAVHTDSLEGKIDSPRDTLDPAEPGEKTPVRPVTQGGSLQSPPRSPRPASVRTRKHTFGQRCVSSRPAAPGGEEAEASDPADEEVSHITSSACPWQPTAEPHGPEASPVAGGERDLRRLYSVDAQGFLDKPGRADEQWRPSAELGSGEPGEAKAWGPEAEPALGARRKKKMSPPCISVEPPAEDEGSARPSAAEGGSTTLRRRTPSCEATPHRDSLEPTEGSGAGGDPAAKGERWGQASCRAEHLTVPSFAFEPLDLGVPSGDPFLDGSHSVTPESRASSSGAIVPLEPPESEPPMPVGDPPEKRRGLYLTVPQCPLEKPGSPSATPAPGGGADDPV

[18] = LGR2 antagonists, dose response, cell-based, HEK293, CRE-luciferase reporter, cherry pick, set 2 (AID 743343); assay type: functional;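 note: transfected cells were stimulated with diluted bursicon conditioned medium after compound addition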
[19] = MC4R antagonists, dose response, counter-screen for LGR2 antagonist project, cell-based, plate reader, cherry pick (AID 743444); assay type: functional;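 note: transfected HEK 293 cells stimulated with alpha-MSH peptide; potency of inhibitors of the alpha-MSH evoked signal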
[20] = P. falciparum Dd2 growth inhibitors, dose response, SYBR Green, cherry-picked samples (AID 1159567); assay type: functional, cell-based

For `COC(=O)[C@@H]1C[C@]2(OC(=O)c3ccccc3)C=CC(=O)C[C@@H]2N1C(=O)OCc1ccccc1`, the EC50 [1] was 18.5 µM (active), the AC50 [2] was 14 µM (active) and the AC50 [3] was 8.72 µM (active). For the same compound, the EC50 (Protein RecA) was 10.5 µM (active) and the AC50 [4] was 6.36 µM (active).
In the case of `CN(Cc1ccccc1)c1nc(N)nc(Cl)c1C=O`, the IC50 [5] is reported as 15.1 µM (active).
With `Cc1cc(OCc2cc(C(=O)N(C)CCc3cnn(C)c3)no2)cc(C)c1Cl` the CC50 [6] was > 40 µM (active) and the IC50 (cells [7]) was 29.6 µM (active).
With `Oc1ccc2ccccc2c1N=Nc1nccs1` the AC50 (INS1) was 0.666 µM (active), the IC50 [8] was > 66 µM (inactive) and the CC50 [6] was 17.8 µM (active). The AC50 [9] was 0.932 µM (active), the EC50 (cells [10]) was 40.4 µM (active) and the AC50 (Paired box protein Pax-8) was 2.92 µM (active). The EC50 (BJ [11]) was 2.03 µM (active), the IC50 [12] was > 66 µM (inactive) and the EC50 (cells [13]) was 40.5 µM (active). For the same compound, the EC50 (BJ [14]) was 1.32 µM (active), the EC50 (BJ [15]) was 2.91 µM (active) and the EC50 [16] was 10.3 µM (active).
For `CCc1nnc(NS(=O)(=O)c2ccc(NC(=O)c3cccc(Br)c3)cc2)s1`, the IC50 [5] was 13.2 µM (active).
In the case of `Cc1cc(C)cc(-n2c(C)c3c(C)nnc(C)c3c2C)c1`, the CC50 [6] is reported as > 40 µM (active).
For `CCCCCOc1ccc(N2C(=O)C3C4C=CC(C3C2=O)N(C)C4=O)cc1` (centres undefined), the CC50 [6] was > 40 µM (active).
In the case of `CCc1ccccc1NC(=O)c1ccc(CN2CCC(Cc3ccccc3)CC2)cc1`, the EC50 [17] is reported as 0.111 µM (active) and the IC50 [5] is reported as 13.8 µM (active).
For `O=C(CCCc1ccccc1)Nc1cccc(C(=O)O)c1`, the AC50 [2] was 4.42 µM (active), the AC50 [18] was 2.04 µM (active) and the AC50 [19] was 1.91 µM (active).
In the case of `CC1CCN(S(=O)(=O)c2ccc3c(c2)N(CC(=O)NCCCN2C(C)CCCC2C)C(=O)CO3)CC1` (centres undefined), the IC50 [5] is reported as 13.5 µM (active).
In the case of `C/C(=N\NC1=NCCN1)c1ccccc1`, the IC50 [5] is reported as 12.9 µM (active).
For `CO[C@@H]1CN(C)C(=O)c2cc(NC(=O)Nc3ccc(C(F)(F)F)cc3)ccc2OC[C@H](C)NC[C@@H]1C`, the AC50 [20] was 5.85 µM (active).
In the case of `COc1ccc(-c2ccc3c(c2)[C@@H]2[C@@H](CCN2Cc2ccncc2)[C@@H](CO)N3)cc1`, the AC50 [20] is reported as 8.88 µM (active).
In the case of `N#C[C@@H]1[C@@H](c2ccccc2C2=CCCC2)[C@H](CO)N1C(=O)C1CC1`, the AC50 [20] is reported as > 36 µM (inactive).
With `COc1ccc2c3c(n(C)c2c1)[C@H](CO)N(C(=O)Nc1ccc(F)cc1)CC31CCN(Cc2ccccn2)CC1` the AC50 [20] was 3.43 µM (active).
